This is an account of results in EPA's ToxValDB 9.5 (doi:10.2903/j.efsa.2012.2504).

Where only a bound is given, the exact number is not on record here.

One data set deals with Rattus norvegicus. The settings on record: for LD50: acute, mortality.
Another data set concerns Anas platyrhynchos. The settings on record: oral, mortality.

As a reminder, the LD50 is the dose expected to kill half of the subjects tested. In turn, `O=C(O)c1ccccc1C(F)(F)F` [2-(Trifluoromethyl)benzoic acid] returned an LD50 in the data set with Rattus norvegicus (oral) of more than 2000 mg/kg.

One may read the NOAEL as the highest dose or exposure tested at which no adverse effect was seen. As for `COCCOC(=O)C(C#N)(C(=O)c1ccccc1C(F)(F)F)c1ccc(C(C)(C)C)cc1` (stereo not given) [Cyflumetofen], the LD50 in the data set with Anas platyrhynchos (acute, unspecified) was more than 2250 mg/kg; in the data set with Colinus virginianus (acute, oral, mortality), more than 2000 mg/kg; with Rattus norvegicus (oral) it was more than 2000 mg/kg. Also, the LC50 was more than 2380 mg/kg-day with Anas platyrhynchos (short-term, feed) and more than 1410 mg/kg-day in the data set with Colinus virginianus (acute, oral, diet, mortality). For the same compound, the NOEC with Colinus virginianus (reproduction developmental, M) was not below 84.4 mg/kg-day. In addition, the NOAEL in the data set with Rattus norvegicus (chronic, duration: 2 years, organ weight) worked out at 16.5 mg/kg-day; with Rattus norvegicus (chronic, no effects), 34.6 mg/kg-day; with Rattus norvegicus (subchronic, duration: 90 days, oral, histopathology: nonneoplastic), 16.5 mg/kg-day.
